Data reported in publication PMC7366380, “Discovery of a Potent and Selective Covalent Inhibitor and Activity-Based Probe for the Deubiquitylating Enzyme UCHL1, with Antifibrotic Activity” (Journal of the American Chemical Society, 2020).
Values joined by “and” are separate entries in the source; they are usually repeats but may differ in a detail not shown here. Identical values can stand only once.

Columns and labels:
Assay in all cases: In-cell proteome-wide competitive ABPP, HEK293: other DUBs and proteins
[1] = molecular target: DUBs and other proteins in HEK293 cells (Homo sapiens, UniProt P51784); settings: replicates A-C; for Log2 reporter intensity values: USP11: competition with ABP 2, DMSO substract (FC); for Log2 reporter intensity values: USP11, DMSO subtracted
[2] = molecular target: DUBs and other proteins in HEK293 cells (Homo sapiens, UniProt P54578); settings: replicates A-C; for Log2 reporter intensity values: USP14: competition with ABP 2, DMSO substract (FC); for Log2 reporter intensity values: USP14, DMSO subtracted
[3] = molecular target: DUBs and other proteins in HEK293 cells (Homo sapiens, UniProt Q7L5N1); settings: for Log2 reporter intensity values, COPS6: TMT replicates; for Log2 reporter intensity values: COPS6: competition with ABP 2, DMSO substract (FC); for Log2 reporter intensity values: COPS6 / Log2 reporter intensity values: replicates A-C; for Log2 t-test Difference / Log2 reporter intensity values: COPS6
[4] = molecular target: T1, DUBs and other proteins in HEK293 cells (Homo sapiens, UniProt Q9Y4E8); settings: replicates A-C; for Log2 reporter intensity values: USP15: competition with ABP 2, DMSO substract (FC); for Log2 reporter intensity values: USP15, DMSO subtracted
T1 sequence (Q9Y4E8 1-981): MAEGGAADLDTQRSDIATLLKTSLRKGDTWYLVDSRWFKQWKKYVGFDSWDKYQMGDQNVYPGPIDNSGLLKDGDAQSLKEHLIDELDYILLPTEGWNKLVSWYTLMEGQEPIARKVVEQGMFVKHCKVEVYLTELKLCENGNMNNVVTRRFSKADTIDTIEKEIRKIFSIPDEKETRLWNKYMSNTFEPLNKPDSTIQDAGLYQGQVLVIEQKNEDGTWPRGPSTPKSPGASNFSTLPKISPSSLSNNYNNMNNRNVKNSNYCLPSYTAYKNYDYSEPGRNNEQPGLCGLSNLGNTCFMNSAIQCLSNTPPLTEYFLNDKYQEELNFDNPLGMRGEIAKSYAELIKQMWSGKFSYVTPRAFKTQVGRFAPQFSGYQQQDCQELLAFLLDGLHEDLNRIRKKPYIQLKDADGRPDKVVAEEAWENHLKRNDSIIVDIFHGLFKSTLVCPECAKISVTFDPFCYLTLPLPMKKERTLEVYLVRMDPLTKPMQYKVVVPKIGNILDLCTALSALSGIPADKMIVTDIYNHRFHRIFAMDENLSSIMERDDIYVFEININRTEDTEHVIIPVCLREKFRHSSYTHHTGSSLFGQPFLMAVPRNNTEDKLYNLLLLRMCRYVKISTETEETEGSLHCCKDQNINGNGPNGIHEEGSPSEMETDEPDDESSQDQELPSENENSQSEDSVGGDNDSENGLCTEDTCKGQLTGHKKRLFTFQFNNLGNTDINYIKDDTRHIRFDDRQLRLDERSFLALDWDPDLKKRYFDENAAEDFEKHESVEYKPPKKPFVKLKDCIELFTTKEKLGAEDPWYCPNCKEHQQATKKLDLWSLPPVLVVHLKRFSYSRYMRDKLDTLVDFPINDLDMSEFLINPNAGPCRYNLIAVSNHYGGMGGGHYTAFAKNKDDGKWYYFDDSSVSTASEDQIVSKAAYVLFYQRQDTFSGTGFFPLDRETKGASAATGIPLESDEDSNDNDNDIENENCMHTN

Chain of DUBs and other proteins in HEK293 cells (Homo sapiens, UniProt P54578) (P54578 whole entry): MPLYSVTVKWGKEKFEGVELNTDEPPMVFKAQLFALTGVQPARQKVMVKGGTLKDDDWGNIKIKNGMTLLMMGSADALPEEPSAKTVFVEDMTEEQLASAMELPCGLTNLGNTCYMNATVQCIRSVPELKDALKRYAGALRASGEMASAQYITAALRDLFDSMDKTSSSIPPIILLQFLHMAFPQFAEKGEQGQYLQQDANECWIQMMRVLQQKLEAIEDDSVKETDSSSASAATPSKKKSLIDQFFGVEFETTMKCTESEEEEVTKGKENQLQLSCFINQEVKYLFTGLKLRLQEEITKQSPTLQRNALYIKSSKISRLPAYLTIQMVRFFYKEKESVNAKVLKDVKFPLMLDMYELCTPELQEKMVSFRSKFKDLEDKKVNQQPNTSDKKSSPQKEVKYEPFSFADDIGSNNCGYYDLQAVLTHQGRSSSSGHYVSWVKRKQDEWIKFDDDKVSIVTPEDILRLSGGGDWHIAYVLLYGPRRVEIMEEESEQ
Chain of DUBs and other proteins in HEK293 cells (Homo sapiens, UniProt P51784) (P51784 whole entry): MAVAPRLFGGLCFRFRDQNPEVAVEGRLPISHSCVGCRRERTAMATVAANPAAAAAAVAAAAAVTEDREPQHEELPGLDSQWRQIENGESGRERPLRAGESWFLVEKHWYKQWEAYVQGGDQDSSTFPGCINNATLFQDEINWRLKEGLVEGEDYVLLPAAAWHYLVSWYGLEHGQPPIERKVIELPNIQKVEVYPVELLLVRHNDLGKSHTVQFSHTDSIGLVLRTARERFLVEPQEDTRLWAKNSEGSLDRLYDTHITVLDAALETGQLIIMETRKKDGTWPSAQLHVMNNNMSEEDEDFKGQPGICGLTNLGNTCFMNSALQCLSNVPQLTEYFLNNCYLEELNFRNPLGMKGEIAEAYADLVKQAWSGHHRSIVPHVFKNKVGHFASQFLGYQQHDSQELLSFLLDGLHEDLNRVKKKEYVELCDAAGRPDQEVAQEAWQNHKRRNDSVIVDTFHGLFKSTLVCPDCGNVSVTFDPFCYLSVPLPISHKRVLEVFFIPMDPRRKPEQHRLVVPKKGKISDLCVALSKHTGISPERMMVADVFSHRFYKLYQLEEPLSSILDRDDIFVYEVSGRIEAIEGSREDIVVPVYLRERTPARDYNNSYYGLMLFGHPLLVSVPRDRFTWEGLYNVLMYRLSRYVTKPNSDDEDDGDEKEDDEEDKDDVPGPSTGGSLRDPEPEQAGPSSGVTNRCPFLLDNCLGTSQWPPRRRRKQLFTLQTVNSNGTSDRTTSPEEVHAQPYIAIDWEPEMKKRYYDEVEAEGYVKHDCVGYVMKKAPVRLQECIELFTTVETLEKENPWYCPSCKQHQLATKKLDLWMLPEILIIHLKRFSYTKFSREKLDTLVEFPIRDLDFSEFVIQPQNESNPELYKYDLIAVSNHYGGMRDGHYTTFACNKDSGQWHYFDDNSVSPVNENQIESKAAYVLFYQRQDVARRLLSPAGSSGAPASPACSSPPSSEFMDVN
Chain of DUBs and other proteins in HEK293 cells (Homo sapiens, UniProt Q7L5N1) (Q7L5N1 whole entry): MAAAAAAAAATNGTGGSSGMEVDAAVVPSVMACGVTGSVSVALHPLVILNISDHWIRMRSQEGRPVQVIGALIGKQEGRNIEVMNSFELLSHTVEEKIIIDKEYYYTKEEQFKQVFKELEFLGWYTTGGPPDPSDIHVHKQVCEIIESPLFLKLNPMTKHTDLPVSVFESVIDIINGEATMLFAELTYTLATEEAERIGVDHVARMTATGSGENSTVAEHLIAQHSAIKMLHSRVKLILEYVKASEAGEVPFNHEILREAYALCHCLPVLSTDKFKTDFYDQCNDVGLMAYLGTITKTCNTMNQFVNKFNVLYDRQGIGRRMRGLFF

Log2 reporter intensity values: USP11 ([1]; 3 at 1 μM): 1.117 and 1.058 and 1.05
Log2 reporter intensity values: USP11 ([1]; 3 at 4 μM): 0.8158 and 0.9889 and 0.9502
Log2 reporter intensity values ([1]; 3_1 μM): 0.1164 and 0.05763 and 0.04999
Log2 reporter intensity values ([1]; 3_4 μM): -0.1845 and -0.01139 and -0.05014
Log2 reporter intensity values ([1]; 3 at 1 μM): 0.1593 and 0.08129 and 0.07083
Log2 reporter intensity values ([1]; 3 at 4 μM): -0.2937 and -0.01604 and -0.0737
Log2 reporter intensity values: USP14 ([2]; 3 at 1 μM): 1.142 and 1.077 and 1.079
Log2 reporter intensity values: USP14 ([2]; 3 at 4 μM): 1.079 and 1.198 and 1.16
Log2 reporter intensity values ([2]; 3_1 μM): 0.1415 and 0.07672 and 0.07886
Log2 reporter intensity values ([2]; 3_4 μM): 0.07915 and 0.1978 and 0.16
Log2 reporter intensity values ([2]; 3 at 1 μM): 0.1912 and 0.1069 and 0.1098
Log2 reporter intensity values ([2]; 3 at 4 μM): 0.1102 and 0.2606 and 0.2145
Log2 reporter intensity values, COPS6 ([3]; 1 μM 3 (60 min) + 20 nM ABP 2 (10 min), All values): 0.04099 and 0.07831 and 0.06581
Log2 reporter intensity values, COPS6 ([3]; 1 μM 3 (60 min) + 20 nM ABP 2 (10 min), DMSO subtracted): 0.02857 and 0.06589 and 0.0534
Log2 reporter intensity values, COPS6 ([3]; 4 μM 3 (60 min) + 20 nM ABP 2 (10 min), All values): -0.1551 and -0.06324 and -0.1331
Log2 reporter intensity values, COPS6 ([3]; 4 μM 3 (60 min) + 20 nM ABP 2 (10 min), DMSO subtracted): -0.1675 and -0.07565 and -0.1455
Log2 reporter intensity values: COPS6 ([3]; 3 at 1 μM): 1.02 and 1.047 and 1.038
Log2 reporter intensity values: COPS6 ([3]; 3 at 4 μM): 0.8904 and 0.9489 and 0.9041
Log2 t-test Difference ([3]; 3 - 1 μM): 0.00565
Log2 t-test Difference ([3]; 3 - 4 μM): -0.1732
Log2 reporter intensity values ([3]; 3_1 μM, DMSO subtracted): 0.01989 and 0.04662 and 0.0376
Log2 reporter intensity values ([3]; 3_4 μM, DMSO subtracted): -0.1098 and -0.0512 and -0.09603
Log2 reporter intensity values ([3]; 3 at 1 μM, DMSO subtracted): 0.02857 and 0.06589 and 0.0534
Log2 reporter intensity values ([3]; 3 at 4 μM, DMSO subtracted): -0.1675 and -0.07565 and -0.1455
Log2 reporter intensity values: USP15 ([4]; 3 at 1 μM): 1.093 and 1.008 and 1.068
Log2 reporter intensity values: USP15 ([4]; 3 at 4 μM): 1.017 and 0.9783 and 1.019
Log2 reporter intensity values ([4]; 3_1 μM): 0.09224 and 0.007674 and 0.06804
Log2 reporter intensity values ([4]; 3_4 μM): 0.01634 and -0.02192 and 0.0187
Log2 reporter intensity values ([4]; 3 at 1 μM): 0.1276 and 0.0114 and 0.09532
Log2 reporter intensity values ([4]; 3 at 4 μM): 0.02376 and -0.03158 and 0.02709
SMILES: N#CN1CCC[C@@H]1C(=O)N1CCc2c(-c3c[nH]c4ncccc34)cccc21 [Compound 3]
